Each substance was assayed on Factor XI mRNA (assay: Cynomolgus monkeys, 25 mg/kg: liver Factor XI RNA analysis (Example 30)). Details: 25 mg/kg s.c.; day 55; liver.
Format: in vivo
Outline: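 Cynomolgus monkeys (2 male, 2 female per group) received antisense oligonucleotide at 25 mg/kg subcutaneously, three times weekly in week 1, then twice weekly in weeks 2–8. Liver Factor XI mRNA was quantified by real-time PCR on day 55 and expressed as percent inhibition relative to a PBS-dosed group.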

Substance	% inhibition of Factor XI mRNA in liver relative to the PBS control
416850 (antisense TGCACAGTTTCTGGCAGGCC; 5-10-5 gapmer, wing sugar chemistry not given here, further chemistry not given here) [compound 416850]	68%
416858 (antisense ACGGCATTGGTGCACAGTTT; 5-10-5 gapmer, wing sugar chemistry not given here, further chemistry not given here) [compound 416858]	89%

What follows are substances tested on human Factor XI mRNA (assay: Dose-dependent inhibition and IC50 in HepG2 cells, microwalk gapmers, electroporation (Example 16)). Details: electroporation, 375 nM.
Format: cell-based
Method: These gapmers were tested at various doses in HepG2 cells. Cells were plated at a density of 20,000 cells per well and transfected using electroporation with 375 nM, 750 nM, 1,500 nM, 3,000 nM, 6,000 nM and 12,000 nM concentrations of antisense oligonucleotide, as specified in Table 54. After a treatment period of approximately 16 hours, RNA was isolated from the cells and Factor XI mRNA levels were measured by quantitative real-time PCR. Human Factor XI primer probe set RTS 2966 was used to measure mRNA levels. Factor XI mRNA levels were adjusted according to total RNA content, as measured by RIBOGREEN. Results are presented as percent inhibition of Factor XI, relative to untreated control cells.
ISIS 416850, ISIS 416858, ISIS 445522, and ISIS 445531 (see Table 52 above) were re-tested in vitro along with the microwalk gapmers under the same conditions described above.
The chimeric antisense oligonucleotides in Table 53 were designed as 3-8-3 MOE, 4-8-4 MOE, 2-10-2 MOE, 3-10-3 MOE, or 4-10-4 MOE gapmers. The 3-8-3 gapmer is 14 nucleotides in length, wherein the central gap segment is comprised of eight 2′-deoxynucleotides and is flanked on both sides (in the 5′ and 3′ directions) by wings comprising three nucleotides each. The 4-8-4 gapmer is 16 nucleotides in length, wherein the central gap segment is comprised of eight 2′-deoxynucleotides and is flanked on both sides (in the 5′ and 3′ directions) by wings comprising four nucleotides each. The 2-10-2 gapmer is 14 nucleotides in length, wherein the central gap segment is comprised of ten 2′-deoxynucleotides and is flanked on both sides (in the 5′ and 3′ directions) by wings comprising two nucleotides each. The 3-10-3 gapmer is 16 nucleotides in length, wherein the central gap segment is comprised of ten 2′-deoxynucleotides and is flanked on both sides (in the 5′ and 3′ directions) by wings comprising three nucleotides each. The 4-10-4 gapmer is 18 nucleotides in length, wherein the central gap segment is comprised of ten 2′-deoxynucleotides and is flanked on both sides (in the 5′ and 3′ directions) by wings comprising four nucleotides each. For each of the motifs (3-8-3, 4-8-4, 2-10-2, 3-10-3, and 4-10-4), each nucleotide in the 5′ wing segment and each nucleotide in the 3′ wing segment has a 2′-MOE modification. The internucleoside linkages throughout each gapmer are phosphorothioate (P═S) linkages. All cytidine residues throughout each gapmer are 5-methylcytidines. “Human Target start site” indicates the 5′-most nucleotide to which the gapmer is targeted in the human sequence. “Human Target stop site” indicates the 3′-most nucleotide to which the gapmer is targeted in the human sequence. Each gapmer listed in Table 53 is targeted to SEQ ID NO: 1 (GENBANK Accession No. NM_000128.3). Each gapmer is Table 53 is also fully cross-reactive with the rhesus monkey Factor XI gene sequence, designated herein as SEQ ID NO: 274 (exons 1-15 GENBANK Accession No. NW—001118167.1). ‘Rhesus monkey start site’ indicates the 5′-most nucleotide to which the gapmer is targeted in the rhesus monkey sequence. ‘Rhesus monkey stop site’ indicates the 3′-most nucleotide to which the gapmer is targeted to the rhesus monkey sequence.
The first two listed gapmers in Table 54 are the original gapmers (ISIS 416850 and ISIS 416858) from which the remaining gapmers were designed via microwalk and are designated by an asterisk.

Substance	percent inhibition of Factor XI mRNA
416850 (antisense TGCACAGTTTCTGGCAGGCC; 5-10-5 gapmer, wing sugar chemistry not given here, further chemistry not given here) [compound 416850]	40%
416858 (antisense ACGGCATTGGTGCACAGTTT; 5-10-5 gapmer, wing sugar chemistry not given here, further chemistry not given here) [compound 416858]	31%

Same assay, conditions: electroporation, 750 nM

Substance	percent inhibition of Factor XI mRNA
416850 (antisense TGCACAGTTTCTGGCAGGCC; 5-10-5 gapmer, wing sugar chemistry not given here, further chemistry not given here) [compound 416850]	59%
416858 (antisense ACGGCATTGGTGCACAGTTT; 5-10-5 gapmer, wing sugar chemistry not given here, further chemistry not given here) [compound 416858]	35%

Same assay, conditions: electroporation, 1,500 nM

Substance	percent inhibition of Factor XI mRNA
416850 (antisense TGCACAGTTTCTGGCAGGCC; 5-10-5 gapmer, wing sugar chemistry not given here, further chemistry not given here) [compound 416850]	69%
416858 (antisense ACGGCATTGGTGCACAGTTT; 5-10-5 gapmer, wing sugar chemistry not given here, further chemistry not given here) [compound 416858]	78%

Same assay, conditions: electroporation, 3,000 nM

Substance	percent inhibition of Factor XI mRNA
416850 (antisense TGCACAGTTTCTGGCAGGCC; 5-10-5 gapmer, wing sugar chemistry not given here, further chemistry not given here) [compound 416850]	87%
416858 (antisense ACGGCATTGGTGCACAGTTT; 5-10-5 gapmer, wing sugar chemistry not given here, further chemistry not given here) [compound 416858]	85%

Same assay, conditions: electroporation, 6,000 nM

Substance	percent inhibition of Factor XI mRNA
416850 (antisense TGCACAGTTTCTGGCAGGCC; 5-10-5 gapmer, wing sugar chemistry not given here, further chemistry not given here) [compound 416850]	90%
416858 (antisense ACGGCATTGGTGCACAGTTT; 5-10-5 gapmer, wing sugar chemistry not given here, further chemistry not given here) [compound 416858]	90%

Same assay, conditions: electroporation, 12,000 nM

Substance	percent inhibition of Factor XI mRNA
416850 (antisense TGCACAGTTTCTGGCAGGCC; 5-10-5 gapmer, wing sugar chemistry not given here, further chemistry not given here) [compound 416850]	95%
416858 (antisense ACGGCATTGGTGCACAGTTT; 5-10-5 gapmer, wing sugar chemistry not given here, further chemistry not given here) [compound 416858]	93%

These substances were tested on human Factor XI mRNA (assay: Dose-dependent inhibition and IC50 in HepG2 cells, electroporation (Example 15)). Details: electroporation, 123.47 nM.
Format: cell-based
Method: Cells were plated at a density of 20,000 cells per well and transfected using electroporation with 123.46 nM, 370.37 nM, 1,111.11 nM, 3,333.33 nM and 10,000 nM concentrations of antisense oligonucleotide, as specified in Table 52. After a treatment period of approximately 16 hours, RNA was isolated from the cells and Factor XI mRNA levels were measured by quantitative real-time PCR. Human Factor XI primer probe set RTS 2966 was used to measure mRNA levels. Factor XI mRNA levels were adjusted according to total RNA content, as measured by RIBOGREEN. Results are presented as percent inhibition of Factor XI, relative to untreated control cells.

Substance	percent inhibition of Factor XI mRNA
416850 (antisense TGCACAGTTTCTGGCAGGCC; 5-10-5 gapmer, wing sugar chemistry not given here, further chemistry not given here) [compound 416850]	0%
416858 (antisense ACGGCATTGGTGCACAGTTT; 5-10-5 gapmer, wing sugar chemistry not given here, further chemistry not given here) [compound 416858]	0%

Same assay, conditions: electroporation, 370.37 nM

Substance	percent inhibition of Factor XI mRNA
416850 (antisense TGCACAGTTTCTGGCAGGCC; 5-10-5 gapmer, wing sugar chemistry not given here, further chemistry not given here) [compound 416850]	12%
416858 (antisense ACGGCATTGGTGCACAGTTT; 5-10-5 gapmer, wing sugar chemistry not given here, further chemistry not given here) [compound 416858]	27%

Same assay, conditions: electroporation, 1,111.11 nM

Substance	percent inhibition of Factor XI mRNA
416850 (antisense TGCACAGTTTCTGGCAGGCC; 5-10-5 gapmer, wing sugar chemistry not given here, further chemistry not given here) [compound 416850]	36%
416858 (antisense ACGGCATTGGTGCACAGTTT; 5-10-5 gapmer, wing sugar chemistry not given here, further chemistry not given here) [compound 416858]	36%

Same assay, conditions: electroporation, 3,333.33 nM

Substance	percent inhibition of Factor XI mRNA
416850 (antisense TGCACAGTTTCTGGCAGGCC; 5-10-5 gapmer, wing sugar chemistry not given here, further chemistry not given here) [compound 416850]	74%
416858 (antisense ACGGCATTGGTGCACAGTTT; 5-10-5 gapmer, wing sugar chemistry not given here, further chemistry not given here) [compound 416858]	64%

Same assay, conditions: electroporation, 10,000.0 nM

Substance	percent inhibition of Factor XI mRNA
416850 (antisense TGCACAGTTTCTGGCAGGCC; 5-10-5 gapmer, wing sugar chemistry not given here, further chemistry not given here) [compound 416850]	73%
416858 (antisense ACGGCATTGGTGCACAGTTT; 5-10-5 gapmer, wing sugar chemistry not given here, further chemistry not given here) [compound 416858]	70%

Reference: patent US20120083522A1, “MODULATION OF INFLAMMATORY RESPONSES BY FACTOR XI” (Isis Pharmaceuitcals, inc., priority 2009, published 2012)
